Assay results from patent publication US7601736B2, “Pyridine derivatives, a process for their preparation and a pharmaceutical composition containing the same” (SK Chemicals Co., Ltd., priority 2003, dated 2009).

tested on: TNF-α; experiment: Cytokine inhibitory activity in cells: LPS-induced TNF-α in RAW 264.7; assay type: cell-based, murine; conditions: Mus musculus, RAW264.7; RAW 264.7, LPS 1 μg/mL; test conc. 1 μM; read-out: TNF-α Inhibition Rate (%)
Description: General reagents used were purchased from Sigma-Aldrich chem. Co. and cytokine inhibitory activities were tested as follows. Mediums and reagents used in cell culture were purchased from GIBCO BRL (USA), and mouse TNF-α ELISA kit was purchased from R&D system (USA). The apparatus used ELISA reader (Spectra max-Plus 384, Molecular Device, USA).
Murine macrophage cell line RAW 264.7 was kindly provided by Korean Tissue Culture Center (KTCC). The cell line was cultured in DMEM medium containing 10% FBS, in a cell culturing device at the condition of 37° C., 5% CO2. First, murine RAW 264.7 was cultured in DMEM medium containing 10% FBS for about 24 hours, and cells were planted 200 μL each in 96 well plates at the concentration of 5×10^5/mL and cultured for about 24 hours. Then, test compounds were treated at various concentrations and then reacted at 37° C. for about 1 hour, wherein 1 μg/mL of lipopolysaccharide (LPS) was added thereto and reacted at 37° C. for about 12 hours. The supernatant was recovered and the amount of murine TNF-α on the medium was quantitated using ELISA kit. Thalidomide was respectively used as a positive and a negative control to compare the activities and the results are shown in the following tables 4a -4c.

Compound	inhibition at 1 µM
Cc1nc(-c2cccs2)cc2c1C(=O)OCC2 [Ex. 97, 8-methyl-6-(thiophene-2-yl)-3,4-dihydro-pyrano[3,4-c]pyridine-1-on]	75%
O=C1OCCc2cc(-c3ccccc3)nc(Cl)c21 [Ex. 73, 8-chloro-6-phenyl-3,4-dihydro-pyrano[3,4-c]pyridine-1-on]	56%
Cc1cc2c(c(-c3cccs3)n1)C(=O)OCC2 [Ex. 28, 6-methyl-8-thiophene-2-yl-3,4-dihydro-pyrano[3,4-c]pyridine-1-on]	8%
Cc1cc2c(c(-c3ccccn3)n1)C(=O)OCC2 [Ex. 29, 6-methyl-8-pyridine-2-yl-3,4-dihydro-pyrano[3,4-c]pyridine-1-on]	10%
Cc1cc2c(c(Cl)n1)C(=O)OCC2 [Ex. 20, 8-chloro-6-methyl-3,4-dihydro-pyrano[3,4-c]pyridine-1-on]	15%
Cc1nc(O)c2c(c1-c1ccccc1)CCOC2=O [Ex. 60, 8-hydroxy-6-methyl-5-phenyl-3,4-dihydro-pyrano[3,4-c]pyridine-1-on]	39%
Cc1cc2c(c(NCc3ccccc3)n1)C(=O)OCC2 [Ex. 51, 8-benzylamino-6-methyl-3,4-dihydro-pyrano[3,4-c]pyridine-1-on]	9%
O=C1OCCc2cc(-c3ccccc3)ncc21 [Ex. 68, 6-phenyl-3,4-dihydro-pyrano[3,4-c]pyridine-1-on]	50%
Cc1nc(-c2ccco2)cc2c1C(=O)OCC2 [Ex. 98, 6-(furan-2-yl)-8-methyl-3,4-dihydro-pyrano[3,4-c]pyridine-1-on]	56%
O=C1OCCc2c1cnc1ccccc21 [Ex. 112, 3,4-dihydro-2-oxa-9-aza-phenanthrene-1-on]	24%
Cc1nc(Cl)cc2c1C(=O)OCC2 [Ex. 96, 6-chloro-8-methyl-3,4-dihydro-pyrano[3,4-c]pyridine-1-on]	38%
O=C1CCC(N2C(=O)c3ccccc3C2=O)C(=O)N1 (stereo not shown) [Thalidomide, reference compound]	8%
Cc1cc2c(c(Nc3ccc(F)cc3)n1)C(=O)OCC2 [Ex. 35, 8-(4-fluoro-phenylamino)-6-methyl-3,4-dihydro-pyrano[3,4-c]pyridine-1-on]	9%
S=C1OCCc2ccncc21 [Ex. 113, 3,4-dihydro-pyrano[3,4-c]pyridine-1-thione]	10%
O=C1OC(c2ccccc2)Cc2ccncc21 (stereo not shown) [Ex. 120a, 3-phenyl-3,4-dihydro-pyrano[3,4-c]pyridine-1-on]	43%

same assay, conditions: Mus musculus, RAW264.7; RAW 264.7, LPS 1 μg/mL; test conc. 10 μM; read-out: TNF-α Inhibition Rate (%)

Compound	inhibition at 10 µM
Cc1nc(-c2cccs2)cc2c1C(=O)OCC2 [Ex. 97, 8-methyl-6-(thiophene-2-yl)-3,4-dihydro-pyrano[3,4-c]pyridine-1-on]	84%
O=C1OCCc2cc(-c3ccccc3)nc(Cl)c21 [Ex. 73, 8-chloro-6-phenyl-3,4-dihydro-pyrano[3,4-c]pyridine-1-on]	63%
Cc1cc2c(c(-c3cccs3)n1)C(=O)OCC2 [Ex. 28, 6-methyl-8-thiophene-2-yl-3,4-dihydro-pyrano[3,4-c]pyridine-1-on]	27%
Cc1cc2c(c(-c3ccccn3)n1)C(=O)OCC2 [Ex. 29, 6-methyl-8-pyridine-2-yl-3,4-dihydro-pyrano[3,4-c]pyridine-1-on]	15%
Cc1cc2c(c(Cl)n1)C(=O)OCC2 [Ex. 20, 8-chloro-6-methyl-3,4-dihydro-pyrano[3,4-c]pyridine-1-on]	21%
Cc1nc(O)c2c(c1-c1ccccc1)CCOC2=O [Ex. 60, 8-hydroxy-6-methyl-5-phenyl-3,4-dihydro-pyrano[3,4-c]pyridine-1-on]	48%
Cc1cc2c(c(NCc3ccccc3)n1)C(=O)OCC2 [Ex. 51, 8-benzylamino-6-methyl-3,4-dihydro-pyrano[3,4-c]pyridine-1-on]	15%
O=C1OCCc2cc(-c3ccccc3)ncc21 [Ex. 68, 6-phenyl-3,4-dihydro-pyrano[3,4-c]pyridine-1-on]	58%
Cc1nc(-c2ccco2)cc2c1C(=O)OCC2 [Ex. 98, 6-(furan-2-yl)-8-methyl-3,4-dihydro-pyrano[3,4-c]pyridine-1-on]	64%
O=C1OCCc2c1cnc1ccccc21 [Ex. 112, 3,4-dihydro-2-oxa-9-aza-phenanthrene-1-on]	28%
Cc1nc(Cl)cc2c1C(=O)OCC2 [Ex. 96, 6-chloro-8-methyl-3,4-dihydro-pyrano[3,4-c]pyridine-1-on]	46%
O=C1CCC(N2C(=O)c3ccccc3C2=O)C(=O)N1 (stereo not shown) [Thalidomide, reference compound]	12%
Cc1cc2c(c(Nc3ccc(F)cc3)n1)C(=O)OCC2 [Ex. 35, 8-(4-fluoro-phenylamino)-6-methyl-3,4-dihydro-pyrano[3,4-c]pyridine-1-on]	17%
S=C1OCCc2ccncc21 [Ex. 113, 3,4-dihydro-pyrano[3,4-c]pyridine-1-thione]	19%
O=C1OC(c2ccccc2)Cc2ccncc21 (stereo not shown) [Ex. 120a, 3-phenyl-3,4-dihydro-pyrano[3,4-c]pyridine-1-on]	54%

same assay, conditions: Mus musculus, RAW264.7; RAW 264.7, LPS 1 μg/mL; test conc. 100 μM; read-out: TNF-α Inhibition Rate (%)

Compound	inhibition at 100 µM
Cc1nc(-c2cccs2)cc2c1C(=O)OCC2 [Ex. 97, 8-methyl-6-(thiophene-2-yl)-3,4-dihydro-pyrano[3,4-c]pyridine-1-on]	93%
O=C1OCCc2cc(-c3ccccc3)nc(Cl)c21 [Ex. 73, 8-chloro-6-phenyl-3,4-dihydro-pyrano[3,4-c]pyridine-1-on]	72%
Cc1cc2c(c(-c3cccs3)n1)C(=O)OCC2 [Ex. 28, 6-methyl-8-thiophene-2-yl-3,4-dihydro-pyrano[3,4-c]pyridine-1-on]	37%
Cc1cc2c(c(-c3ccccn3)n1)C(=O)OCC2 [Ex. 29, 6-methyl-8-pyridine-2-yl-3,4-dihydro-pyrano[3,4-c]pyridine-1-on]	18%
Cc1cc2c(c(Cl)n1)C(=O)OCC2 [Ex. 20, 8-chloro-6-methyl-3,4-dihydro-pyrano[3,4-c]pyridine-1-on]	31%
Cc1nc(O)c2c(c1-c1ccccc1)CCOC2=O [Ex. 60, 8-hydroxy-6-methyl-5-phenyl-3,4-dihydro-pyrano[3,4-c]pyridine-1-on]	56%
Cc1cc2c(c(NCc3ccccc3)n1)C(=O)OCC2 [Ex. 51, 8-benzylamino-6-methyl-3,4-dihydro-pyrano[3,4-c]pyridine-1-on]	21%
O=C1OCCc2cc(-c3ccccc3)ncc21 [Ex. 68, 6-phenyl-3,4-dihydro-pyrano[3,4-c]pyridine-1-on]	65%
Cc1nc(-c2ccco2)cc2c1C(=O)OCC2 [Ex. 98, 6-(furan-2-yl)-8-methyl-3,4-dihydro-pyrano[3,4-c]pyridine-1-on]	72%
O=C1OCCc2c1cnc1ccccc21 [Ex. 112, 3,4-dihydro-2-oxa-9-aza-phenanthrene-1-on]	33%
Cc1nc(Cl)cc2c1C(=O)OCC2 [Ex. 96, 6-chloro-8-methyl-3,4-dihydro-pyrano[3,4-c]pyridine-1-on]	56%
O=C1CCC(N2C(=O)c3ccccc3C2=O)C(=O)N1 (stereo not shown) [Thalidomide, reference compound]	20%
Cc1cc2c(c(Nc3ccc(F)cc3)n1)C(=O)OCC2 [Ex. 35, 8-(4-fluoro-phenylamino)-6-methyl-3,4-dihydro-pyrano[3,4-c]pyridine-1-on]	26%
S=C1OCCc2ccncc21 [Ex. 113, 3,4-dihydro-pyrano[3,4-c]pyridine-1-thione]	28%
O=C1OC(c2ccccc2)Cc2ccncc21 (stereo not shown) [Ex. 120a, 3-phenyl-3,4-dihydro-pyrano[3,4-c]pyridine-1-on]	66%

same assay, conditions: Mus musculus, RAW264.7; RAW 264.7, LPS 1 μg/mL; test conc. 1 mM; read-out: TNF-α Inhibition Rate (%)

Compound	inhibition at 1000 µM
Cc1nc(-c2cccs2)cc2c1C(=O)OCC2 [Ex. 97, 8-methyl-6-(thiophene-2-yl)-3,4-dihydro-pyrano[3,4-c]pyridine-1-on]	100%
O=C1OCCc2cc(-c3ccccc3)nc(Cl)c21 [Ex. 73, 8-chloro-6-phenyl-3,4-dihydro-pyrano[3,4-c]pyridine-1-on]	80%
Cc1cc2c(c(-c3cccs3)n1)C(=O)OCC2 [Ex. 28, 6-methyl-8-thiophene-2-yl-3,4-dihydro-pyrano[3,4-c]pyridine-1-on]	59%
Cc1cc2c(c(-c3ccccn3)n1)C(=O)OCC2 [Ex. 29, 6-methyl-8-pyridine-2-yl-3,4-dihydro-pyrano[3,4-c]pyridine-1-on]	30%
Cc1cc2c(c(Cl)n1)C(=O)OCC2 [Ex. 20, 8-chloro-6-methyl-3,4-dihydro-pyrano[3,4-c]pyridine-1-on]	41%
Cc1nc(O)c2c(c1-c1ccccc1)CCOC2=O [Ex. 60, 8-hydroxy-6-methyl-5-phenyl-3,4-dihydro-pyrano[3,4-c]pyridine-1-on]	78%
Cc1cc2c(c(NCc3ccccc3)n1)C(=O)OCC2 [Ex. 51, 8-benzylamino-6-methyl-3,4-dihydro-pyrano[3,4-c]pyridine-1-on]	30%
O=C1OCCc2cc(-c3ccccc3)ncc21 [Ex. 68, 6-phenyl-3,4-dihydro-pyrano[3,4-c]pyridine-1-on]	76%
Cc1nc(-c2ccco2)cc2c1C(=O)OCC2 [Ex. 98, 6-(furan-2-yl)-8-methyl-3,4-dihydro-pyrano[3,4-c]pyridine-1-on]	87%
O=C1OCCc2c1cnc1ccccc21 [Ex. 112, 3,4-dihydro-2-oxa-9-aza-phenanthrene-1-on]	35%
Cc1nc(Cl)cc2c1C(=O)OCC2 [Ex. 96, 6-chloro-8-methyl-3,4-dihydro-pyrano[3,4-c]pyridine-1-on]	63%
O=C1CCC(N2C(=O)c3ccccc3C2=O)C(=O)N1 (stereo not shown) [Thalidomide, reference compound]	21%
Cc1cc2c(c(Nc3ccc(F)cc3)n1)C(=O)OCC2 [Ex. 35, 8-(4-fluoro-phenylamino)-6-methyl-3,4-dihydro-pyrano[3,4-c]pyridine-1-on]	32%
S=C1OCCc2ccncc21 [Ex. 113, 3,4-dihydro-pyrano[3,4-c]pyridine-1-thione]	42%
O=C1OC(c2ccccc2)Cc2ccncc21 (stereo not shown) [Ex. 120a, 3-phenyl-3,4-dihydro-pyrano[3,4-c]pyridine-1-on]	85%

same assay, conditions: RAW 264.7; compared to the control compounds

Compound	inhibitory activity in RAW 264.7 cell line on the production of TNF-α, in words
Cc1nc(-c2cccs2)cc2c1C(=O)OCC2 [Ex. 97, 8-methyl-6-(thiophene-2-yl)-3,4-dihydro-pyrano[3,4-c]pyridine-1-on]	superiorities over to the control compounds
